Laboratory results taken from patent EP4741397A1, “FUSED TRICYCLIC COMPOUND, AND PREPARATION METHOD THEREFOR AND USE THEREOF” (Shenzhen Zhongge Biological Technology Co., Ltd., priority 2023, dated 2025).
pIC50: −log10 of the molar value. Values belong to the molecule of their own block, whether it stands above or below them.

Experiments:
[1] = target: T1, SARM1 (Homo sapiens, UniProt Q6SZW1); assay: In vitro enzyme inhibition activity (SAM-TIR lysate, NAD/ADPR by HPLC-MS/MS); assay type: biochemical; details: SAM-TIR lysate (SARM1 408-724) from NRK1-HEK293T cells; 25°C, 3 h with NAD
T1 construct: 408-724 expression plasmid and vector-control customized by SinoBio; host or cells: NRK1-HEK293T cells, transient transfection; crude clarified lysate used as the enzyme
T1 sequence (Q6SZW1 408-724 limits assumed): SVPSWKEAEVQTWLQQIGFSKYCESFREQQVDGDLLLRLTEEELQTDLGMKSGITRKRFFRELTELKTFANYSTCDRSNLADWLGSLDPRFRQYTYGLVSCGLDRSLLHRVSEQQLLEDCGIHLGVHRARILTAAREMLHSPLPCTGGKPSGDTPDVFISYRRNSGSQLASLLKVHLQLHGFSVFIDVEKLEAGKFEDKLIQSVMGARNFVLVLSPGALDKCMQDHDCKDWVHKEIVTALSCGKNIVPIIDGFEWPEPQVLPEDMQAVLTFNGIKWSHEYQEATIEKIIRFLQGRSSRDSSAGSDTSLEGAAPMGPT
Experimental: NRK1-HEK293T cells were seeded at approximately 10 × 10^6 cells/plate into 150 mm culture dishes containing 25 mL of growth medium. […] At the time of transfection, 250 µL of nicotinamide riboside (100 mM) was added to each dish to minimize toxicity from SAM-TIR overexpression. 48 hours after the transfection, the cells were washed three to four times with cold PBS and collected. The cells were resuspended in 0.5 mL of PBS containing protease inhibitors. Cell lysates were prepared by sonication. The lysate was centrifuged at 12500 rpm for 10 min at 4°C to remove cell debris, and protein concentration was determined by bicinchoninic acid (BCA) assay and used to normalize lysate concentration. The aliquots of supernatant were stored at -80°C until use.
• 1) Transfer the compound dilutions into an assay plate by Echo 650; • 2) Add 10µl 2× SAM-TIR lysate to each well; • 3) Seal the assay plate, centrifuge at 1000rpm for 1min, and incubate at 25°C for 30min; • 4) Add 10µl 2× NAD to each well; • 5) Centrifuge at 1000rpm for 1min, and incubate at 25°C for 3h; • 6) Add 40µL trichloroacetic acid to each well to terminate the reaction, mix and shake for 30s, and centrifuge at 4000rpm for 10min; • 7) Take 40µL supernatant from each well and add appropriate amount of ammonia water to adjust the pH; • 8) Detect nicotinamide adenine dinucleotide (NAD) and adenosine diphosphate ribose (ADPR) by HPLC-MS/MS.

[2] = Liver microsomal stability in vitro; assay type: in vitro ADME; details: liver microsomes, NADPH, 37 °C, 0-45 min
Experimental: 100 mM K-Mg-buffer containing 5 mM MgCl2 was preheated. The spiking solution was prepared by adding 5 µL of 10 mM compound and reference stock solution to 95 µL of acetonitrile (ACN). 1.5 µL of 500 µM spiking solution and 18.75 µL of 20 mg/mL liver microsomes were added to 479.8 µL of K-Mg-buffer. NADPH stock solution (3 mM) was prepared by dissolving NADPH in K-Mg-buffer. 30 µL of 1.5 µM spiking solution containing microsomes was evenly dropped into the assay plate at different time points (0, 5, 15, 30, and 45 min), and pre-incubated at 37 °C for 5 min. At 0 min, 200 µL of ACN containing IS (internal standard, tolbutamid/terfenadine) was added to the wells, then 15 µL of NADPH stock solution (6 mM) was added. For the other time points, the reaction was initiated and timed by adding 15 µL of NADPH stock solution (6 mM) to the wells. The reaction was stopped by adding 200 µL of ACN containing IS to the corresponding plate wells at 5, 15, 30, and 45 min, respectively. After quenching, the plate was shaken at 600 rpm for 10 min and then centrifuged at 4000 rpm for 50 min. 80 µL of supernatant per well was pipetted to a 96-well sample plate containing 160 µL of pure water for UPLC/MS/MS analysis.

[3] = Pharmacokinetic evaluation in mice; assay type: in vivo, CD1 mice; details: plasma
Experimental: The test compound was dissolved in the vehicle to prepare a clear solution or a homogeneous suspension. Three mice (CD1 mice) per group were administered 2 mg/kg via the tail vein and 10 mg/kg orally (PO). Blood was collected at 0.083 h, 0.25 h, 0.5 h, 1 h, 2 h, 4 h, 8 h, and 24 h after intravenous administration, and at 0.083 h, 0.25 h, 0.5 h, 1 h, 2 h, 4 h, 8 h and 24 h after oral administration. Plasma samples were centrifuged, and the supernatant was collected to prepare samples for quantitative analysis by LC/MS/MS. Conclusion: At least some of the compounds of the present application (e.g., compound 25) have excellent pharmacokinetic properties in mice (including but not limited to Cl (clearance rate), T1/2 (half-life), Cmax (peak concentration), AUC (area under the drug-time curve), F (bioavailability), etc.). Table 6 The mouse PK properties of compound 25

[4] = Cell membrane permeability (cell monolayer, A to B and B to A); assay type: in vitro ADME; details: 120 min, 37°C; for Papp A→B at 2 h, 10 µM: A to B
Experimental: Test compounds were diluted from 10 mM stock solution to a concentration of 10 µM in transport buffer (HBSS + BSA) and applied to the apical or basolateral side of the cell monolayer. The permeability of the test compounds was determined in both direction of from A to B and B to A directions after 120 min incubation at 37°C, 5% CO2 and 95% relative humidity. In addition, the efflux ratio of each compound was determined. The analyte and reference compounds were quantified by LC-MS/MS based on the analyte/IS peak area ratio.

[5] = tested on: sciatic nerve; assay: Mouse sciatic nerve axotomy (SNA) model; assay type: in vivo; details: mice, Figure 2
From the text: Methods: Mice were anesthetized with isoflurane, and the skin of the right hind limb was shaved and sterilized with iodine. An incision was made between the knee and hip joints, and the gluteal muscle was carefully separated using a pair of sterile surgical scissors. The sciatic nerve was cut proximally to the thigh with a pair of sterile surgical scissors, and a 1-2 mm segment of the nerve was removed to prevent axonal regeneration into the distal stump. The gluteal muscle was then placed back to its original anatomical position, and the overlying skin was reattached with surgical staples or sutures.
To examine the denervation of the neuromuscular junction (NMJ), the tibialis anterior muscles were dissected from perfused animals and fixed overnight with 4% paraformaldehyde/PBS at 4°C. Immunohistochemical staining was subsequently performed with Neurofilament-L antibody and Synapsin-1 antibody as well as acetylcholine receptor (AchR) markers. Finally, imaging was performed by laser confocal microscope Zeiss LSM710.

[6] = In vivo brain permeability (plasma and cerebrospinal fluid PK); details: CD1 mice, PO 10 mg/kg; for AUC(0-inf) / Cmax / Tmax / half-life: mouse
Experimental: The test compound was dissolved in the vehicle to prepare a clear solution or a homogeneous suspension. Three mice (CD1 mice) per group were orally administered (PO) at 10 mg/kg. Plasma and cerebrospinal fluid were collected at 1 h, 4 h, and 8 h after oral administration and quantitatively analyzed by LC/MS/MS. Conclusion: At least some of the compounds of the present application have reached very high levels of Cmax and AUC in cerebrospinal fluid and have good in vivo brain permeability. […] Table 7 Plasma and cerebrospinal fluid PK of compound 25

[7] = Kinetic solubility evaluation; assay type: physicochemical; details: pbs, pH 7.4, aqueous buffer
Experimental: 10 mM stock solution was prepared by dissolving the test compound in DMSO. 100 mM K2HPO4 solution was prepared by adding 8.71 g K2HPO4 to 500 mL deionized water. 100 mM KH2PO4 solution was prepared by adding 2.05 g KH2PO4 to 150 mL deionized water. 405 mL of 100 mM K2HPO4 and 95 mL of 100 mM KH2PO4 were mixed and adjusted to pH 7.4 with 100 mM K2HPO4/KH2PO4 solution.
16 µL of 10 mM compound stock solution was added to 784 µL of PBS buffer (n = 3) by 96 well plate, and the plate was sealed and shaken at 25°C, 1000 rpm for 1.5 h. After incubation, the solution was transferred to a filter plate. All samples were filtered. 5 µL of the filtrate was taken, added to 5 µL of DMSO and 490 µL acetonitrile aqueous solution containing internal standard (1:1) and mixed. Then the mixed solution was diluted with acetonitrile aqueous solution containing internal standard (1:1) according to the properties of the compound and its response in the mass spectrometer. The dilution factor was adjusted according to the solubility value and UPLC-MS/MS signal response.

[8] = tested on: mouse primary neurons; assay: Neuronal injury model based on mouse primary neurons (axotomy, TUJ1 staining); assay type: cell-based; details: 0.3 µM, compared with the control I-5; axotomy at DIV 10, Figure 1
Experimental: Methods: Neocortices were dissected from the brains of newborn mice at DIV 0 (Day In Vitro 0), digested with 0.05% (w/v) trypsin/EDTA, and incubated at 37°C for 10 min. Neuronal cells obtained after digestion were seeded in cell culture dishes preincubated with poly-D-lysine in Neurobasal/B-27 medium (Neurobasal medium supplemented with 1% (v/v) B-27, 2 mM glutamine, 100 U/ml penicillin, and […] streptomycin). Starting from DIV 3, a half of the medium was replaced with fresh Neurobasal/B-27 medium every two days. At DIV 10, the cultures were subjected to axotomy and compound administration. The cells were fixed with 4% paraformaldehyde the day after axotomy and subjected to cell immunofluorescence staining for TUJ1. Confocal imaging of axons was performed using a Zeiss LSM710 laser confocal microscope.

SMILES: O=C1C(Cc2ccc(Cl)cc2)CCN1c1nc2ccc3cnccc3c2[nH]1 (stereo not shown) [Cpd. 2]
pIC50 [1]: > 6.82

SMILES: O=C1C(Cc2cc(F)c(Cl)c(F)c2)CCCN1c1nc2ccc3cnccc3c2[nH]1 (stereo not shown) [Cpd. 14]
pIC50 [1]: > 6.82

pIC50 [1]: 6.00 to 6.30
SMILES: O=C(CCc1ccc(Cl)cc1)Nc1[nH]nc2c1ccc1cnccc12 [Cpd. 12]

SMILES: O=C1C(Cc2ccc(Cl)c(F)c2)CCN1c1nc2c([nH]1)COc1cnccc1-2 (stereo not shown) [Cpd. 24]
pIC50 [1]: > 6.82

SMILES: O=C1C(Cc2ccc(Cl)c(F)c2)CCN1c1nc2c(ccc3cnccc32)o1 (stereo not shown) [Cpd. 20]
pIC50 [1]: > 6.82

SMILES: O=C1C(Cc2ccc(Cl)c(F)c2)CCCN1c1nc2c(ccc3cnccc32)o1 (stereo not shown) [Cpd. 21]
pIC50 [1]: 6.30 to 6.82

SMILES: O=C1C(Cc2ccc(Cl)c(Cl)c2)CCN1c1nc2ccc3cnccc3c2[nH]1 (stereo not shown) [Cpd. 6]
pIC50 [1]: 6.30 to 6.82

SMILES: O=C(CCc1ccc(Cl)c(F)c1)Nc1nc2ccc3cnccc3c2[nH]1 [Cpd. 9]
pIC50 [1]: > 6.82
half-life [2]: 19.7 min

pIC50 [1]: 6.30 to 6.82
SMILES: O=C(CCc1ccc(Cl)c(F)c1)Nc1nc2c(ccc3cnccc32)o1 [Cpd. 22]

SMILES: O=C1C(Cc2ccc(Cl)c(F)c2)CCCN1c1nc2c([nH]1)COc1cnccc1-2 (stereo not shown) [Cpd. 25]
AUC(0-inf) ([3]; mouse IV (2 mg/kg)): 2210 ng·h/mL
C0 ([3]; mouse IV (2 mg/kg)): 2110 ng/mL
clearance ([3]; mouse IV (2 mg/kg)): 15.1 mL/min/kg
half-life ([3]; mouse IV (2 mg/kg)): 79.8 min
Vd ([3]; mouse IV (2 mg/kg), read-out: Vss): 1.31 L/kg
AUC(0-inf) ([3]; mouse PO (10 mg/kg)): 9820 ng·h/mL
Cmax ([3]; mouse PO (10 mg/kg)): 3000 ng/mL
Tmax ([3]; mouse PO (10 mg/kg)): 25 min
half-life ([3]; mouse PO (10 mg/kg)): 110 min
bioavailability ([3]; mouse PO (10 mg/kg) vs IV (2 mg/kg)): 89%
efflux ratio at 2 h, 10 µM [4]: 0.9
Papp A→B at 2 h, 10 µM [4]: 7.56 ×10⁻⁶ cm/s
protection of axons from injury-induced axonal degeneration [5]: significantly protect axons from injury-induced axonal degeneration
pIC50 [1]: > 6.82
AUCbrain/AUCplasma [6]: 0.71
AUC(0-inf) ([6]; Cerebrospinal fluid PK): 6900 ng·h/mL
Cmax ([6]; Cerebrospinal fluid PK): 2200 ng/mL
Tmax ([6]; Cerebrospinal fluid PK): 60 min
half-life ([6]; Cerebrospinal fluid PK): 84.6 min
AUC(0-inf) ([6]; Plasma PK): 9700 ng·h/mL
Cmax ([6]; Plasma PK): 3090 ng/mL
Tmax ([6]; Plasma PK): 60 min
half-life ([6]; Plasma PK): 84 min
solubility at […] [7]: > 50 µg/mL
half-life [2]: 26.1 min
neuron-protecting activity (axonal loss after axonal injury) [8]: stronger neuron-protecting activity

SMILES: O=C1C(Cc2cc(F)c(Cl)c(F)c2)CCN1c1nc2ccc3cnccc3c2[nH]1 (stereo not shown) [Cpd. 4]
efflux ratio at 2 h, 10 µM [4]: 1.15
Papp A→B at 2 h, 10 µM [4]: 11 ×10⁻⁶ cm/s
pIC50 [1]: > 6.82
half-life [2]: 28.9 min

SMILES: O=C1C(Cc2cnc(Cl)c(F)c2)CCN1c1nc2ccc3cnccc3c2[nH]1 (stereo not shown) [Cpd. 7]
pIC50 [1]: 6.30 to 6.82

SMILES: O=C(CCc1cnc(Cl)c(F)c1)Nc1nc2ccc3cnccc3c2[nH]1 [Cpd. 10]
pIC50 [1]: 6.30 to 6.82
half-life [2]: 21.1 min

SMILES: O=C1C(Cc2ccc(Cl)c(F)c2)CCN1c1nc2ccc3cnccc3c2[nH]1 (single isomer, unassigned) [Cpd. 18]
pIC50 [1]: > 6.82

SMILES: O=C1C(Cc2ccc(Cl)c(F)c2)CCN1c1nc2ccc3cnccc3c2[nH]1 (single isomer, unassigned) [Cpd. 19]
pIC50 [1]: > 6.82

SMILES: O=C(CCc1ccc(Cl)cc1)Nc1nc2ccc3cnccc3c2[nH]1 [Cpd. 8]
pIC50 [1]: > 6.82

SMILES: C=C(CCc1ccc(Cl)cc1)C(=O)Nc1nc2ccc3cnccc3c2[nH]1 [Cpd. 11]
pIC50 [1]: < 6.00

SMILES: O=C1C(Cc2ccc(Cl)c(F)c2)CCCN1c1nc2ccc3cnccc3c2[nH]1 (stereo not shown) [Cpd. 15]
pIC50 [1]: > 6.82

SMILES: O=C(CCc1ccc(Cl)c(F)c1)Nc1nc2c([nH]1)COc1cnccc1-2 [Cpd. 23]
pIC50 [1]: > 6.82
half-life [2]: 37.4 min

SMILES: O=C1C(Cc2ccc(F)c(Cl)c2)CCN1c1nc2ccc3cnccc3c2[nH]1 (stereo not shown) [Cpd. 3]
pIC50 [1]: 6.00 to 6.30

SMILES: O=C1C(Cc2ccc(Cl)c(F)c2)CCN1c1nc2ccc3cnccc3c2[nH]1 (stereo not shown) [Cpd. 5]
pIC50 [1]: > 6.82
